# Source: US20210115104A1, “AMYLIN ANALOGUES” (Zealand Pharma A/S, priority 2015, published 2021)
# *1 amine or outer side, *2 acyl side, *3 side chain or, on linkers, in order; H or OH if unused. Where a SMILES comes first, the peptide text is derived from it. Bridges are numbered along the chain shown (N, C = ends). [ ]: non-standard residue; d: D form. The star is where a group is joined. C20 diacid = O=C(O)CCCCCCCCCCCCCCCCCCC(=O)*; γGlu = O=C(O)[C@H](CCC(=O)[*:2])N[*:1]; NMeI = CC[C@H](C)[C@H](NC)C(=O)O; Sar = CNCC(=O)O
# Assays:
# [1] = molecular target: T1, human calcitonin receptor (hCTR2) (Homo sapiens, UniProt P30988); test: hCTR2 cAMP assay (AlphaScreen) in COS7 cells; format: cell-based; details: cAMP induction, COS7 cells expressing hCTR2; Table 1; read-out: hCTR2 EC50
# T1 construct: expressed in transfected cells
# T1 sequence (P30988 25-474): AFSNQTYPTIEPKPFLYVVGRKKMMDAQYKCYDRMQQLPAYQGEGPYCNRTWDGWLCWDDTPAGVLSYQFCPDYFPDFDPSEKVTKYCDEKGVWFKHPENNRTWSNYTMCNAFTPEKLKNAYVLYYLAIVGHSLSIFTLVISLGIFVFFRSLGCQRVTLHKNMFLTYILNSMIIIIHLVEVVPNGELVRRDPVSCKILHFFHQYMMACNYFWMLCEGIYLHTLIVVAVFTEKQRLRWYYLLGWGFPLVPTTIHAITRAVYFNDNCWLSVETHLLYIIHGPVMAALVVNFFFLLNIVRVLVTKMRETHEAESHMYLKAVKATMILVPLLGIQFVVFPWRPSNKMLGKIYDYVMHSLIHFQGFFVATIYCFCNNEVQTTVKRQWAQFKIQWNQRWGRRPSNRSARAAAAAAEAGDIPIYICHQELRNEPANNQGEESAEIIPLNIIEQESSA
# Procedure, shortened: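 cAMP induction, read by AlphaScreen after lysis, gives EC50 values via 4PL curve fitting. Peptides were applied at rising concentrations for 15 min at 37 °C, with IBMX and 0.1% casein in HEPES-buffered Tyrode pH 7.4, to COS7 cells (no endogenous RAMPs) stably expressing human CTR2.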
# [2] = molecular target: T2, human amylin receptor 3 (hAMYR3), hCTR2 co-expressed with hRAMP3 (Homo sapiens, UniProt O60896+P30988); test: hAMYR3 cAMP assay (AlphaScreen) in COS7 cells; format: cell-based; details: cAMP induction, COS7 cells expressing hAMYR3; Table 1; read-out: hAMYR3 EC50
# T2 construct: expressed in transfected cells
# T2 sequence (P30988 25-474): T1 sequence (P30988 25-474)
# T2 sequence (O60896 24-148 partner): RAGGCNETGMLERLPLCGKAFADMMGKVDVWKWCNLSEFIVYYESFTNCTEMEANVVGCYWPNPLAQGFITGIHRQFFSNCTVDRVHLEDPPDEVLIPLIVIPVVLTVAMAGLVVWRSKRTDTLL
# Procedure, shortened: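 EC50 values derive from 4PL curve fits of cAMP (AlphaScreen) in lysates of RAMP-naive COS7 cells stably carrying hCTR2 plus hRAMP3. Peptide dilution series were applied for 15 min at 37 °C in pH 7.4 Tyrode buffer containing 100 µM IBMX and 0.1% casein.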
EC50 [1] [pM],EC50 [2] [pM],Structure (SMILES)
85,190,"CC[C@H](C)[C@@H](C(=O)N[C@@H](CC(C)C)C(=O)N[C@@H](CO)C(=O)N[C@@H](CO)C(=O)N[C@H](C(=O)N[C@@H](CCC(=O)O)C(=O)N[C@H](C(=O)NCC(=O)N[C@@H](CO)C(=O)N[C@@H](CCC(=O)O)C(=O)N[C@H](C(=O)N1CCC[C@H]1C(N)=O)[C@@H](C)O)C(C)C)[C@@H](C)O)N(C)C(=O)[C@H](C)NC(=O)CN(C)C(=O)[C@H](Cc1ccccc1)NC(=O)[C@H](CO)NC(=O)[C@H](CO)NC(=O)[C@H](CCCNC(=N)N)NC(=O)[C@@H](NC(=O)[C@H](CC(C)C)NC(=O)[C@H](Cc1ccccc1)NC(=O)[C@H](Cc1c[nH]cn1)NC(=O)[C@H](C)NC(=O)[C@H](CC(C)C)NC(=O)[C@H](CCCNC(=N)N)NC(=O)[C@H](CCC(N)=O)NC(=O)[C@@H](NC(=O)[C@H](C)NC(=O)[C@@H]1CSSC[C@H](NC(=O)[C@H](CCCNC(=N)N)NC(=O)CC[C@H](NC(=O)CCCCCCCCCCCCCCCCCCC(=O)O)C(=O)O)C(=O)N[C@@H](CC(N)=O)C(=O)N[C@@H]([C@@H](C)O)C(=O)N[C@@H](C)C(=O)N[C@@H]([C@@H](C)O)C(=O)N1)[C@@H](C)O)C(C)C [Compound 24, [19CD]-isoGlu-R-C( )-NTAT-C( )-ATQRLAHFLVRSSF-Gly(Me)-A-Ile(Me)-LSSTEVGSETP-NH2] ({C20 diacid-γGlu}-RCNTATCATQRLAHFLVRSSF[Sar]A[NMeI]LSSTEVGSETP-NH2; disulfide 2-7)"
160,220,"CC[C@H](C)[C@@H](C(=O)N[C@@H](CC(C)C)C(=O)N[C@@H](CO)C(=O)N[C@@H](CO)C(=O)N[C@H](C(=O)N[C@@H](CCC(=O)O)C(=O)N[C@H](C(=O)NCC(=O)N[C@@H](CO)C(=O)N[C@@H](Cc1ccccc1)C(=O)N[C@H](C(=O)N1CCC[C@H]1C(N)=O)[C@@H](C)O)C(C)C)[C@@H](C)O)N(C)C(=O)[C@H](C)NC(=O)CN(C)C(=O)[C@H](Cc1ccccc1)NC(=O)[C@H](CO)NC(=O)[C@H](CO)NC(=O)[C@H](CCCNC(=N)N)NC(=O)[C@H](CCC(N)=O)NC(=O)[C@H](CC(C)C)NC(=O)[C@H](Cc1ccccc1)NC(=O)[C@H](Cc1c[nH]cn1)NC(=O)[C@H](C)NC(=O)[C@H](CC(C)C)NC(=O)[C@H](CCCNC(=N)N)NC(=O)[C@H](CCC(=O)O)NC(=O)[C@@H](NC(=O)[C@H](C)NC(=O)[C@@H]1CSSC[C@H](NC(=O)[C@H](CCCNC(=N)N)NC(=O)CC[C@H](NC(=O)CCCCCCCCCCCCCCCCCCC(=O)O)C(=O)O)C(=O)NCC(=O)N[C@@H]([C@@H](C)O)C(=O)N[C@@H](C)C(=O)N[C@@H]([C@@H](C)O)C(=O)N1)[C@@H](C)O [Compound 39, [19CD]-isoGlu-R-C( )-GTAT-C( )-ATERLAHFLQRSSF-Gly(Me)-A-Ile(Me)-LSSTEVGSFTP-NH2] ({C20 diacid-γGlu}-RCGTATCATERLAHFLQRSSF[Sar]A[NMeI]LSSTEVGSFTP-NH2; disulfide 2-7)"
